Experimental data: PubChem BioAssay (NCI)
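Dose response: 5 concentrations. Exposure: 48 h. Format: 96-well plates. Endpoint: linear interpolation; highest concentration if not reached. GI50 marks 50% less growth. The concentration for full growth arrest is given as TGI.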

Columns and labels:
Assay in all cases: NCI anticancer screen, dose series, 48 h
[1] = tested on: CAKI-1 renal
[2] = tested on: HOP-62 NSCLC
[3] = tested on: HT29 colon
[4] = tested on: K-562 leukemia
[5] = tested on: NCI-H23 lung
[6] = tested on: RXF 393 renal
[7] = tested on: SF-268 CNS
[8] = tested on: SK-MEL-5 melanoma
[9] = tested on: SN12C renal
[10] = tested on: SW-620 colon

Compound | GI50 [1] | TGI [1] | GI50 [2] | TGI [2] | GI50 [3] | TGI [3] | GI50 [4] | TGI [4] | GI50 [5] | TGI [5] | GI50 [6] | TGI [6] | GI50 [7] | TGI [7] | GI50 [8] | TGI [8] | GI50 [9] | TGI [9] | GI50 [10] | TGI [10]
Cc1nnc(-c2cccc(-c3ccc(C(=O)NCC4CC4)cc3)c2)o1 | > 25 µM | > 25 µM | > 25 µM | > 25 µM | > 25 µM | > 25 µM | > 25 µM | > 25 µM | > 25 µM | > 25 µM | > 25 µM | > 25 µM | > 25 µM | > 25 µM | > 25 µM | > 25 µM | > 25 µM | > 25 µM | > 25 µM | > 25 µM
O=c1cc(-c2cccc3c2Sc2ccccc2S3)oc(N2CCOCC2)c1 | 5.3 µM | 18.9 µM | 10.9 µM | 23 µM | 8.82 µM | 23.5 µM | 5.98 µM | 30.9 µM | 15.5 µM | 36.9 µM | 1.76 µM | 8.05 µM | 7.76 µM | 24.2 µM | 8.53 µM | 22 µM | 6.17 µM | 21.8 µM | 12.3 µM | 26.8 µM
CCC[CH2][Sn]1([CH2]CCC)[O]CC(CN(C)Cc2ccccc2)[O]1 (configuration not stated) | 1.47 µM | 7.13 µM | 14.1 µM | 27.7 µM | 15.2 µM | 34.3 µM | 2.76 µM | 12.9 µM | 3.18 µM | 14.5 µM | – | 23.1 µM | 5.89 µM | 17.7 µM | 11.9 µM | 24.3 µM | 10.1 µM | 21.9 µM | 2.77 µM | 11.1 µM
O=C(NCCCO)c1cc(Cl)ccc1O | 6.11 µM | 24.6 µM | 3.86 µM | 13.4 µM | 2.16 µM | 10.8 µM | 0.901 µM | 18.4 µM | 2.02 µM | 8.3 µM | 3.94 µM | 12.9 µM | 6.52 µM | 20.2 µM | 1.94 µM | 4.33 µM | 1.89 µM | 11.7 µM | 2.94 µM | 14.3 µM
Oc1ccc(-c2nc3ccccc3s2)cc1CN(Cc1ccccn1)Cc1ccccn1 | 0.313 µM | 3.36 µM | 0.34 µM | 32.1 µM | 6.74 µM | 19.9 µM | 0.674 µM | 35.5 µM | 2.64 µM | 24.3 µM | 1.64 µM | 9.96 µM | 1 µM | 16 µM | 0.556 µM | 2.27 µM | 1.7 µM | 14.4 µM | 1.06 µM | 14.7 µM
CCC(=C/[C@H](C)C/C=C/C(C)=C/[C@@H](C)C(=O)[C@@H](C)[C@H](O)[C@@H](C)CC)/C=C/[C@@H]1OC(=O)C=C[C@H]1C | < 0.01 µM | < 0.01 µM | < 0.01 µM | < 0.01 µM | < 0.01 µM | 1.4 µM | < 0.01 µM | 1.07 µM | < 0.01 µM | 4.03 µM | < 0.01 µM | < 0.01 µM | < 0.01 µM | – | < 0.01 µM | < 0.01 µM | < 0.01 µM | 1.41 µM | < 0.01 µM | 1.43 µM
COc1ccc2c(=O)cc(C(Cl)(Cl)Cl)oc2c1 | 0.376 µM | 14.6 µM | 1.04 µM | 27.6 µM | 0.345 µM | 10.9 µM | 0.0525 µM | > 100 µM | 0.409 µM | 19.3 µM | 0.676 µM | 20.4 µM | 0.377 µM | 15.6 µM | 0.278 µM | 0.833 µM | 0.519 µM | 11.9 µM | 0.237 µM | 14.5 µM
Cc1cccc(C)c1NC(=O)C1C(=O)N(c2c(C)cccc2C)C(=O)/C1=N\N (configuration not stated) | – | > 100 µM | – | > 100 µM | – | > 100 µM | – | > 100 µM | – | > 100 µM | – | > 100 µM | – | > 100 µM | – | > 100 µM | – | > 100 µM | – | > 100 µM
CCN(CC)CCCNCc1cc(-c2ccccc2)nc2ccccc12 | 19.5 µM | > 100 µM | 8.27 µM | > 100 µM | 2.77 µM | 10.6 µM | 5.63 µM | 22.1 µM | 6.07 µM | 85.2 µM | 6.99 µM | 39.9 µM | 4.72 µM | > 100 µM | 5.49 µM | 18.7 µM | 4.52 µM | > 100 µM | 2.75 µM | 21.9 µM
CC(=O)c1c(C)[nH]c(-c2nc3ccc(N4CCN(C)CC4)cc3[nH]2)c1-c1ccc(N(C)C)cc1 | 0.309 µM | 13.9 µM | 0.56 µM | 28.4 µM | 0.299 µM | 19.4 µM | 0.461 µM | 8.79 µM | 2 µM | 21.4 µM | 0.486 µM | 2.08 µM | 4.1 µM | 26.8 µM | 1.19 µM | 4.59 µM | 1.76 µM | 43.1 µM | 2.15 µM | 25.5 µM
Oc1ccc2ccccc2c1N=Nc1ccsc1 | – | > 100 µM | – | > 100 µM | – | > 100 µM | – | > 100 µM | – | > 100 µM | – | > 100 µM | – | > 100 µM | – | > 100 µM | – | > 100 µM | – | > 100 µM
C[C@]12CC/C(=N\O)C=C1CC[C@@H]1C2CC[C@@]2(C)C1CC[C@@H]2OC1CCCCO1 (some centres not stated) | – | > 10 µM | – | > 100 µM | – | 28.8 µM | – | 46.3 µM | – | 31.2 µM | – | 50.5 µM | – | 55.2 µM | – | > 100 µM | – | > 10 µM | – | 32 µM
C[As](C)SCC(COC(=O)C(Cl)c1ccccc1)OC(=O)C(Cl)c1ccccc1 (configuration not stated) | 0.506 µM | 6.58 µM | 6.66 µM | 21.6 µM | 0.754 µM | > 100 µM | 0.147 µM | – | 0.719 µM | 14.6 µM | 0.641 µM | 15 µM | 3.3 µM | 14.9 µM | 0.305 µM | 1.12 µM | 2.48 µM | 10.9 µM | 0.491 µM | 28.2 µM
C#Cc1c(/C=C/C(=O)OCC)ccc2ccccc12 | 21.4 µM | 56.7 µM | 28.5 µM | 95.5 µM | 6.61 µM | 26 µM | 6.98 µM | 41.7 µM | 20.1 µM | 47.9 µM | 22.6 µM | 69.7 µM | 18.2 µM | 58.5 µM | 15.2 µM | 31.9 µM | 13.3 µM | 39.4 µM | 32.2 µM | > 100 µM
